# Results published in the supplement of paper PMC10307832.
# Assays:
# Test in all cases: relative viability (nuclei count vs DMSO), 5 days (fraction); higher = more cells survive
# [1] = compound: N=C1NC(=O)/C(=C/c2ccc(O)cc2)S1 [Mirin] + O=C(c1cc(Cc2n[nH]c(=O)c3ccccc23)ccc1F)N1CCN(C(=O)C2CC2)CC1 [Olaparib] (partner 8 µM)
# Procedure, shortened: (§1)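 Lung cancer cell lines were pin-tool dosed in 1536-well plates on the day after seeding, with either a lone drug or a fixed anchor-drug dose plus five library-drug doses (not always all listed) in √10 steps. Nuclei were counted on 4× images after 5 days. Relative viability is the ratio of treated-well to vehicle-well nuclei counts, with each value a median of duplicate plates.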
# [2] = compound: CCC1=CN=CN=C1N2CCN(CC2)CC3=NC4=C(N3)C=C(C=C4)C(F)(F)F + O=C(CCCCCCC(=O)Nc1ccccc1)NO [Vorinostat] (partner 1 µM)
# Procedure, shortened: as §1
# [3] = compound: CCC1=CN=CN=C1N2CCN(CC2)CC3=NC4=C(N3)C=C(C=C4)C(F)(F)F + C[C@@H](Oc1cc(-c2cnn(C3CCNCC3)c2)cnc1N)c1c(Cl)ccc(F)c1Cl [Crizotinib] (partner 1 µM)
# Procedure, shortened: as §1
# [4] = compound: N=C1NC(=O)/C(=C/c2ccc(O)cc2)S1 [Mirin] + CC1(C)CCC(c2ccc(Cl)cc2)=C(CN2CCN(c3ccc(C(=O)NS(=O)(=O)c4ccc(N[C@H](CCN5CCOCC5)CSc5ccccc5)c(S(=O)(=O)C(F)(F)F)c4)cc3)CC2)C1 [Navitoclax] (partner 0.5 µM)
# Procedure, shortened: as §1
Cell Line,relative viability ([1]; first compound 0.25 µM),relative viability ([1]; first compound 0.7906 µM),relative viability ([1]; first compound 2.5 µM),relative viability ([1]; first compound 7.906 µM),relative viability ([1]; first compound 25 µM),relative viability ([2]; first compound 0.04 µM),relative viability ([2]; first compound 0.1265 µM),relative viability ([2]; first compound 0.4 µM),relative viability ([2]; first compound 1.265 µM),relative viability ([2]; first compound 4 µM),relative viability ([3]; first compound 0.04 µM),relative viability ([3]; first compound 0.1265 µM),relative viability ([3]; first compound 0.4 µM),relative viability ([3]; first compound 1.265 µM),relative viability ([3]; first compound 4 µM),relative viability ([4]; first compound 0.25 µM),relative viability ([4]; first compound 0.7906 µM),relative viability ([4]; first compound 2.5 µM),relative viability ([4]; first compound 7.906 µM),relative viability ([4]; first compound 25 µM)
NCI-H650,0.365,0.433,0.352,0.307,0.366,0.414,0.455,0.448,0.363,0.477,0.741,0.724,0.765,0.757,1.1,,,,,
NCI-H1299,1.03,1.01,0.958,0.867,1.03,,,,,,0.935,0.953,0.953,0.96,0.981,0.998,1.1,1.09,1.03,1.2
NCI-H661,0.713,0.759,0.712,0.707,0.655,0.78,0.794,0.757,0.704,0.663,0.996,0.943,0.964,0.951,1.1,,,,,
NCI-H358,0.6,0.86,0.584,0.487,0.601,0.695,0.622,0.661,0.586,0.686,0.581,0.73,0.92,1.15,1.68,,,,,
NCI-H1648,0.572,,0.955,0.639,0.764,0.684,,,0.362,0.403,,,,,,,,,,
EBC-1,0.707,0.783,0.693,0.561,0.471,,,,,,0.186,0.169,0.218,0.196,0.169,0.419,0.479,0.456,0.368,0.144
NCI-H1395,0.427,,0.478,0.426,0.425,0.575,0.574,0.7,,0.748,,,,,,1.24,,1.12,1.04,1.09
ABC-1,0.887,0.618,0.78,0.593,0.41,,,0.989,0.84,1.03,1.09,1.04,1.38,1.11,0.852,,,,,
NCI-H1703,0.414,0.384,0.412,,0.635,,,,,,1.07,0.697,0.775,0.858,1.23,1.27,1.21,1.26,,0.685
NCI-H1793,0.649,,0.958,0.873,0.703,0.568,0.668,0.531,0.536,0.647,,,,,,0.55,0.36,0.395,0.656,0.371
